The subject of test [1] is HCV. The note with it: cited from earlier work.
In test [2] the target is T1, HCV NS3 RNA helicase (Hepatitis C virus genotype 1a, UniProt P27958).
T1 construct: derived from the full length, native polypeptide (residues 1027-1657); made in house; host or cells: Spodoptera frugiperda Sf9 cells, recombinant baculovirus bacNS3-5B (polyprotein residues 1027-3011 expressed and processed)
In kind it is biochemical. Particulars: for helicase activity levels reduced when substituting for Mn^+2: divalent cation tested at 3 mM.

We go through six compounds from US20020081574A1, “Methods for identifying inhibitors of helicase C virus” (priority 1996, published 2002).

T1 sequence (P27958 1027-1657): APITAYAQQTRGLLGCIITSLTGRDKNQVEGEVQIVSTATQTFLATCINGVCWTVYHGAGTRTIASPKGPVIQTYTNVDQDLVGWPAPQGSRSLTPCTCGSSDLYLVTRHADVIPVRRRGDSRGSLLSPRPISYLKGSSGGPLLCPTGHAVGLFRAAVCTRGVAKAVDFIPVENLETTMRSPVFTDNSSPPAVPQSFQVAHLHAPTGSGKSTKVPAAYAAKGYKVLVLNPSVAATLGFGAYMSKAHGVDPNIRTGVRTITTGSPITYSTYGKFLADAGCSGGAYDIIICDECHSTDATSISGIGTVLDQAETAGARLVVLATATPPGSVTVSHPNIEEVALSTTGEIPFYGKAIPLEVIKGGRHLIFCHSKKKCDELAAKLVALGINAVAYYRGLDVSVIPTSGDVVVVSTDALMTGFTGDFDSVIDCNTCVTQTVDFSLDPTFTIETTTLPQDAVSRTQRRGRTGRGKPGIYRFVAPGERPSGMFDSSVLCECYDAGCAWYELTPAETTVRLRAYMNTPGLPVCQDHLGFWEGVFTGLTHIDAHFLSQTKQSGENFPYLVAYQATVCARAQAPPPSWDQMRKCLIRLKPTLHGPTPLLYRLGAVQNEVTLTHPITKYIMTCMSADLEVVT

Turning to interferon alpha [IFN-α], in test [1] (IFN treatment), the “improved serum liver enzyme response” value is 20-40 % of patients. Besides, the “sustained improvement of aminotransferase levels” value in test [1] (responders) is listed as 10-20 % of patients.
Turning to `[Cu+2]` [Cu^+2], in test [2], the “helicase activity levels reduced when substituting for Mn^+2” value (“helicase activity levels reduced” below) amounted to 7 fold.
In the case of `[K+]` [K^+], the “effect of monovalent cations on HCV NS3 helicase activity” value in test [2] is on record as “inhibit”.
For `[Zn+2]` [Zn^+2], the “helicase activity levels reduced” value in test [2] was found to be 2 fold.
For the compound `[Na+]` [Na^+], the “effect of monovalent cations on HCV NS3 helicase activity” value in test [2] is recorded as “inhibit”.
Regarding `[Ca+2]` [Ca^+2], the “helicase activity levels reduced” value in test [2] came to 3 fold.
